Source: patent US20240252496A1, “SELECTIVE HYPOTHALAMUS PERMEABLE HDAC6 INHIBITORS FORTREATMENT OF LEPTIN-RESISTANT OBESITY” (The Children’s Medical Center Corporation, priority 2022, published 2024)

Assays:
HDAC6 [1] = target: T1, HDAC6 (Mus musculus (Mouse), UniProt Q9Z2V5); experiment: LepRb acetyl-lysine immunoblotting in HEK293 cells; type: cell-based; conditions: 200 nM, 0.5-3 h
Description: HEK293 cells were transfected with the plasmids and were treated with vehicle or ACY775. Subsequently Flag immunoprecipitation was used to pull down LepRb followed by Ac^Lys or Flag immunoblotting.
To test whether HDAC6 can deacetylate LepRb, HEK293 cells were transfected with plasmids (LepRb-Flag, HA-p300 and HDAC6-myc). LepRb was immunoprecipitated by Flag antibodies, which was followed by acetyl-lysine (Ac^Lys) or immunoblottings.
Next, cells were transfected with plasmids (LepRb-Flag, HA-p300 and HDAC6-myc) and subsequently treated with ACY775 ([…]) for 0.5, 1, 2 and 3 h. […] Next, to investigate whether HDAC6 has any effect on LepRb tyrosine phosphorylation, which is indicative of LepRb activation, HEK 293 cells were transfected with LepRb and HDAC6-Myc plasmids in the indicated order and the cells stimulated with leptin (200 ng/ml) for 10 and 60 minutes. The Flag immunoprecipitates were exposed to phospho-tyrosine (p^Tyr) immunoblotting.

DMH neurons = experiment: ACY775-responsive DMH neurons in TRAP2 DIO mice (c-fos, HDAC6 depletion, caspase3 ablation); type: in vivo
Description: Following the bilateral injection of AAV-sgHDAC6 into the arcuate nucleus of Agrp-ires-cre::LSL-Cas9-GFP (Agrp-Cre^+/−::Cas9^+/−) or control LSL-Cas9-GFP (Cas9^+/−) mice, immunostaining to detect the expression of mCherry and GFP was performed. AAV-sg-HDAC6 injected Agrp-Cre^+/−::Cas9^+/− (HDAC6^Agrp-Δ) and Cas9^+/− (HDAC6^WT) DIO mice (n=7 for each group) were fasted for 24 hours, and injected with ACY775 (10 mg/kg. i.p). Hourly total dark cycle food intake (g) (n=7 for each group) of these mice after ACY775 injection was measured. Body weight of AAV-sg-HDAC6 injected HDAC6^Agrp-Δ (n=11) and HDAC6^WT (n=6) mice were measured during 3 weeks of ACY775 (10 mg/kg/day, i.p.) treatment. Daily average food intake of HDAC6^Agro-Δ (n=11) and HDAC6^WT (n=6) mice was measured during 3 weeks of ACY775 (10 mg/kg/day, i.p.) treatment. 24-hour food intake average of HDAC Agrp- and HDAC6^WT mice during the 3 weeks of ACY775 treatment was assessed. Serum leptin level (ng/ml) of HDAC6^Agrp-Δ and HDAC6^WT mice after 2 weeks of ACY775 treatment (n=13 for HDAC6^WT and n=18 for HDAC6^Agrp-Δ) was measured. Lean mass (g); fat mass; and fat percentage (%) of HDAC Agrp- and HDAC6^WT DIO mice after 3 weeks of ACY775 treatment was measured by DEXA scan. The HDAC6 inhibitor responsive neurons in the dorsomedial hypothalamus (DMH) were assessed. Immunostaining and quantification of c-Fos expression was performed in the DMH of DIO mice following one-time ACY775 treatment (10 mg/kg, i.p.).
Coordinates used for aav-sg-HDAC6 injection into the DMH of c-Fos-iCreER::LSL-Cas9-GFP (TRAP2-Cas9) mouse, mCherry immunostaining in the aav-sg-HDAC6 injected TRAP2-cas9 obese mice, which were treated three weeks earlier with one dose of ACY775 (10 mg/kg, i.p.) (TRAP2-HDAC6^DMH-Δ) or vehicle (TRAP2-HDAC6^WT), followed by 4-Hydroxytamoxifen (4-OHT) injection, were assessed. TRAP2-HDAC6^WT and TRAP2-HDAC6^DMH-Δ mice were fasted 24-h and treated with ACY775 (10 mg/kg, i.p.). Hourly and total dark cycle food intake (g) (n=4 for each group) was determined for these mice after ACY775 injection. Daily body weight of TRAP2-HDAC6^DMH-Δ (n=10) or TRAP2-HDAC6^WT (n=11) DIO mice was measured during 2 weeks of ACY775 (10 mg/kg/day, i.p) treatment. Daily average food intake of TRAP2-HDAC6^DMH-Δ (n=10) or TRAP2-HDAC6^WT (n=11) DIO mice was measured during 2 weeks of ACY775 treatment.
To investigate whether activity of other neuronal populations are altered after HDAC6 inhibitor treatment, c-fos staining was performed in the whole brain of DIO mice, which were acutely treated with ACY775. […] Some of the DMH neurons express high levels of LepRb and involved in regulation of appetite […]. […]

LepRb-HDAC6 interaction = LepRb-HDAC6 interaction (Mus musculus (Mouse), UniProt Q9Z2V5); experiment: LepRb-flag / HDAC6-myc co-immunoprecipitation in HEK293 cells; type: cell-based; conditions: 200 nM for 1 h
Description: It was hypothesized that HDAC6 might interact with leptin receptor b (LepRb). To test this hypothesis, HEK293 cells were transfected with GFP or HDAC6-myc or LepRb-flag or LepRb-flag and HDAC6-myc expressing plasmids. Subsequently, cells were treated either with vehicle or HDAC6 inhibitor (ACY775) (200 nM for 1 h). Then Flag immunoprecipitation was performed to pull down LepRb and subsequently immunoblot these immune-precipitates with Myc and Flag antibodies.
HEK293 cells were transfected with GFP (as control) or HDAC6 or LepRb or LepRb and HDAC6 together. Subsequently cells were either treated with vehicle or HDAC6 inhibitor (ACY775) (200 nM for 1 h). Flag immunoprecipitation was used to pull down LepRb, followed by Myc and Flag immunoblotting.

HDAC6 [2] = target: T1, HDAC6; experiment: HDAC6 inhibition in hypothalamus and other brain regions (Ac-tubulin); set-up: species or system mice; conditions: in vivo

T1 sequence (Q9Z2V5 whole entry): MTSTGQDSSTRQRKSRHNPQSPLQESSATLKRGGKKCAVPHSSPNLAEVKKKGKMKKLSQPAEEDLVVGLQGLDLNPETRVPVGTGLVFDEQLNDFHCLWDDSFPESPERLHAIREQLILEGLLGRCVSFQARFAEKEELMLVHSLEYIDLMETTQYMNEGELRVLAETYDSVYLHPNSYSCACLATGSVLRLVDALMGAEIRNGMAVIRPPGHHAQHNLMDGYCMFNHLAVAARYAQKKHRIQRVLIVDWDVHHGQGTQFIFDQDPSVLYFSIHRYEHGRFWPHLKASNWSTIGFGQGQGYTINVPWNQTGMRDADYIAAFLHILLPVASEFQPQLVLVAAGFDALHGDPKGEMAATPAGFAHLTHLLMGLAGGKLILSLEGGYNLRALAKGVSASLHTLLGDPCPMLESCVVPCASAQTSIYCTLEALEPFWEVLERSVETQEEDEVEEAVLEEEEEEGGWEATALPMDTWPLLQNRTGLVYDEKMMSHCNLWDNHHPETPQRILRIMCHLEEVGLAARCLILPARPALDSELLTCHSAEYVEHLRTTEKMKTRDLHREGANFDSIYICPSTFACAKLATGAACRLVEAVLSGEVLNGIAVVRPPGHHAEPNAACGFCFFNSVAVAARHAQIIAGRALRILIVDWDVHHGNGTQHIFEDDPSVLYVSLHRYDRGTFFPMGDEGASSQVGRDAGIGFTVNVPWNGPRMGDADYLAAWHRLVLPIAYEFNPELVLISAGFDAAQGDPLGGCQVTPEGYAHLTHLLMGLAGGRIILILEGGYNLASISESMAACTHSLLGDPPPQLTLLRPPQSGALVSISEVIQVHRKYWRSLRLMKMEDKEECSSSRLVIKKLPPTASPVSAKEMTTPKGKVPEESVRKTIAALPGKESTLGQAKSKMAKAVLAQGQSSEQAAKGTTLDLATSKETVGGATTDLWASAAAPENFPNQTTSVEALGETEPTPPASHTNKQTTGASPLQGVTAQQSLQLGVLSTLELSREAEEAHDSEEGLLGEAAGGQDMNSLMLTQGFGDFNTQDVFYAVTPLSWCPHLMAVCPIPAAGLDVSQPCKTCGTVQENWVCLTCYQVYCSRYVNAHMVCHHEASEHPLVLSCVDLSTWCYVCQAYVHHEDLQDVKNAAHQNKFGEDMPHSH
Sequence of LepRb-HDAC6 interaction (Q9Z2V5 whole entry): as above

SMILES: O=C(NO)c1cnc(NC2(c3cccc(F)c3)CCCCC2)nc1 [ACY775, 2-[[1-(3-fluorophenyl)cyclohexyl]amino]-N-hydroxy-5-pyrimidinecarboxamide]
- deacetylation of LepRb (HDAC6 [1]): completely block deactylation of LepRb
- food intake in fasted caspase3^on-DMH vs caspase3^off-DMH mice (DMH neurons; 10 mg/kg i.p.): significantly higher than caspase3^off-DMH mice
- weight and food intake in TRAP2-HDAC6^DMH-Δ and TRAP2-HDAC6^WT mice (DMH neurons; 2 weeks, 10 mg/kg/day i.p.): lost weight and food intake was reduced equally in both groups
- c-fos positive cells in DMH (DMH neurons; DIO mice, acute treatment, fasting): major increase in c-fos positive cell number
- body weight and food consumption in caspase3^on-DMH mice (DMH neurons; chronic, 10 mg/kg/day i.p.): neither reduced the body weight nor the food consumption
- HDAC6 interaction with LepRb (LepRb-HDAC6 interaction): blocks this interaction

SMILES: O=C(CCCCCCNC(=O)c1cnc(N(c2ccccc2)c2ccccc2)nc1)NO [Ricolinostat]
- HDAC6 inhibition in the hypothalamus (HDAC6 [2]): nor show HDAC6 inhibition in the hypothalamus
